Article PMC7738880, “Identification of novel CD44v6-binding peptides that block CD44v6 and deliver a pro-apoptotic peptide to tumors to inhibit tumor growth and metastasis in mice” (Theranostics, 2021)
Residues, ends and D or L forms follow the SMILES beside them.

How the values were obtained:
[1] = test system: c-Met and Erk phosphorylation in 4T1 cells; experiment: Western blotting of HGF-induced c-Met and Erk phosphorylation, 4T1; type: cell-based, mouse; conditions: peptide pre-treatment 10 min, HGF 25 ng/mL 10 min
Protocol: To examine c-Met and Erk phosphorylation, MDA-MB231 cells were serum-starved for 24 h, pre-treated with CD44v6-binding peptides (20 µM) for 10 min, and incubated with 25 ng/mL HGF for 10 min. After the incubation, the cell lysates were subjected to Western blotting analyses using an anti-phospho-Met rabbit monoclonal antibody (clone no. D26; Cell Signaling Technology), anti-Met mouse monoclonal antibody (clone no. 25H2, 1:1000 dilution; Cell Signaling Technology), anti-phospho-Erk1/2 rabbit monoclonal antibody (clone no. 197G2; Cell Signaling Technology), and anti-ERK1 rabbit polyclonal antibody (1:1000 dilution; Santa Cruz Biotechnology). The labeled bands on immunoblots were detected using enhanced chemiluminescence reagents (ThermoFisher Scientific).
Supplementary Figure S3. NLN and NEW inhibit HGF-induced c-Met phosphorylation and cell migration and invasion in 4T1 breast tumor cells. (A) Western blotting analysis of c-Met and Erk phosphorylation in 4T1 cells pretreated or not with 5 μg/mL NLN and NEW for 10 min and treated with 25 ng/mL HGF for 10 min. (B) The quantification of c-Met and Erk […]
(1 picture or pasted object on this page, not shown here)

[2] = test system: MDA-MB231 subcutaneous tumors; experiment: In vivo whole-body and ex vivo fluorescence imaging of tumor homing; parameters: species or system BALB/c nude mouse; conditions: Flamma 675 NIR dye-labeled peptide 1 mg/kg i.v.; for ex vivo accumulation in tumors versus organs: 6 h post-injection, n = 3/group; for in vivo fluorescence signals at tumor areas: imaging 1-6 h
Protocol: Mice for animal experiments were purchased from Orient Bio Inc. (Seongnam, Korea) and maintained in conformance with the Guidelines of the Institutional Animal Care and Use Committee of Kyungpook National University (permission no. 2014-1-121). A total of 1 × 10^6 MDA-MB231 cells were subcutaneously injected into the right flank of each 6-week-old female BALB/c nude mouse. When the tumor reached a volume of approximately 100 mm^3, the mouse was injected intravenously with Flamma 675 NIR fluorescence dye-labeled peptides (1 mg/kg body weight). Whole-body fluorescence imaging was performed under inhalational anesthesia using an IVIS imaging system (Perkin Elmer). After in vivo imaging, each mouse was euthanized, the tumor and control organs (liver, kidney, spleen, heart, and lung) were isolated, and ex vivo images were obtained using the IVIS imaging system.

[3] = test system: Panc-1 cells; experiment: Saturation cell binding assay, Panc-1; parameters: species or system human; conditions: biotin-labeled peptide 0-256 µM, 4 °C, 1 h
Protocol: Supplementary Information
Supplementary Materials and Methods
Saturation binding assays to determine the cellular binding affinities of peptides Cells (5 × 10^3 cells per well in a 96-well plate) were incubated with 1% bovine serum albumin (BSA) for 30 min and with different concentrations of biotin-labeled peptides (0, 2, 4, 8, 16, 32, 64, 128, and 256 µM) at 4 °C for 1 h. After washing, the cells were incubated with horseradish peroxidase-conjugated neutravidin (1:10,000 dilution; ThermoFisher Scientific, Waltham, MA) for 30 min at room temperature. Enzymatic activity was detected using a 3,3ʹ,5,5ʹ-tetramethylbenzidine substrate (ThermoFisher Scientific), and the reaction was stopped using 2 M sulfuric acid. The absorbance at 450 nm was measured in each well using a microplate reader (Tecan, Mannedorf, Switzerland). The KD values were then calculated using GraphPad Prism 6 software (GraphPad Inc., La Jolla, CA). […]
10 µM biotin-labeled CD44v6-binding peptides at 4 °C for 1 h. […]
Scientific) for 30 min at room temperature. […]

[4] = molecular target: T1, recombinant human CD44-Fc protein (Homo sapiens, UniProt P16070); experiment: SPR analysis of peptide binding to CD44-Fc; conditions: biotin-conjugated peptide on streptavidin chip, CD44-Fc 0.125-2 µM
T1 construct: Fc; purchased R&D Systems
T1 sequence (P16070 21-361 isoform P16070-12 limits assumed): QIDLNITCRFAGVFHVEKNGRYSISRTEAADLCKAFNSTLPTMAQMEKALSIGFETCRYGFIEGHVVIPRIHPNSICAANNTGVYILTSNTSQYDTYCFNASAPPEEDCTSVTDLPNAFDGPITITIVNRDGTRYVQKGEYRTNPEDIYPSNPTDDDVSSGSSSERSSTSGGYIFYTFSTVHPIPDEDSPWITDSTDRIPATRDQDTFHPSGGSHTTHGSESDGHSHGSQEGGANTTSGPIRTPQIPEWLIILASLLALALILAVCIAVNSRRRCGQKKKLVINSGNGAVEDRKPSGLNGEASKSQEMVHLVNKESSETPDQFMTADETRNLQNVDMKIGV
Protocol: The binding affinity (KD) of CD44v6-binding peptides to the CD44v6 protein was measured using an SPR instrument (Reichert Technologies, Depew, NY). A streptavidin chip was used as the immobilization substrate and exposed to biotin-labeled peptides (25 μΜ) at 5 μL/min for 50 min. The streptavidin only surface was used for the reference surface. All SPR signals were corrected by subtraction with the response of the reference surface. After washing, the chip was flowed with a solution of CD44v6-Fc or CD44-Fc protein (R&D Systems, Minneapolis, MN) in binding buffer (137 mM NaCl, 10 mM phosphate, 2.7 mM KCl pH 7.4, 62.5 µM BSA, and 0.005% Tween-20) at concentrations of 0.125, 0.25, 0.5, 1, and 2 μM at 10 μL/min for 3 min. Five concentrations (0.125, 0.25, 0.5, 1, and 2 µM) of CD44v6-Fc and CD44-Fc were used in a single-cycle dynamic SPR measurements. Resonance units were recorded and analyzed using Scrubber 2.0 software (BioLogic Software, Campbell, Australia). KD values were calculated by analyzing the steady-state binding data by fitting the curve of binding level against concentration with a 1:1 binding model (GraphPad Prism 7.0 software).

[5] = test system: c-Met in MDA-MB231 cells; experiment: HGF-induced c-Met internalization (confocal microscopy); type: cell-based, human; conditions: peptide pre-treatment 10 min, HGF 25 ng/mL 30 or 60 min
Protocol: To examine the internalization of CD44v6, 1 × 10^5 MDA-MB231 cells were seeded in each well of an 8-well chamber slide and cultured for 24 h. Next, the cells were incubated with a fresh culture medium containing FITC-labeled peptides (10 μM) at 37 °C for 10, 30, and 60 min and then stained with an anti-human CD44v6 mouse monoclonal antibody (clone no. VFF-7; Santa Cruz Biotechnology). The cells were then incubated with an Alexa Fluor 594-labeled goat anti-mouse IgG secondary antibody (Merck). To examine the internalization of c-Met, cells were incubated with recombinant human HGF at 25 ng/mL (R&D Systems, Minneapolis, MN) for 30 or 60 min with or without pre-treatment with peptides (20 µM) for 10 min. After incubation, the cells were stained with an anti-Met rabbit polyclonal antibody (clone no. C-28, 1:100 dilution; Santa Cruz Biotechnology). The cells were then incubated with an Alexa Fluor 594-labeled goat anti-rabbit IgG secondary antibody (Merck). For nuclear staining, the cells were incubated with DAPI and the ProLong antifade reagent before observation under a confocal microscope (Zeiss).

SMILES | HGF-induced phosphorylation of c-Met and Erk, 4T1 [1] | ex vivo accumulation in tumors versus organs [2] | in vivo fluorescence signals at tumor areas [2] | Kd [3] [µM] | binding to the CD44 protein [4] | HGF-induced internalization of c-Met [5]
CC[C@H](C)[C@H](NC(=O)[C@@H](NC(=O)[C@H](CC(N)=O)NC(=O)[C@H](CC(C)C)NC(=O)[C@H](CC(N)=O)NC(=O)[C@@H](N)CS)[C@@H](C)O)C(=O)N[C@@H](CC(=O)O)C(=O)N[C@H](C(=O)N[C@@H](CS)C(=O)O)[C@@H](C)O [NLN] (H-CNLNTIDTC-OH; N-terminus and C-terminus assumed) | inhibited | higher levels of NLN and NEW accumulation in tumors than in control organs | higher than those associated with the control peptide until 4 h | 8 ± 5 | did not bind | inhibited
CC(C)C[C@H](NC(=O)[C@H](CCC(N)=O)NC(=O)[C@H](Cc1c[nH]c2ccccc12)NC(=O)[C@H](CCC(=O)O)NC(=O)[C@H](CC(N)=O)NC(=O)[C@@H](N)CS)C(=O)N[C@@H](CCCCN)C(=O)N[C@@H](CO)C(=O)N[C@@H](CS)C(=O)O [NEW] (H-CNEWQLKSC-OH; N-terminus and C-terminus assumed) | inhibited | higher levels of NLN and NEW accumulation in tumors than in control organs | higher than those associated with the control peptide until 4 h | 7 ± 3 | did not bind | inhibited
